What was measured:
P. falciparum TM91C235 = experiment: In vitro antimalarial activity against P. falciparum TM91C235; format: cell-based, Plasmodium falciparum
[1] = test system: FVO strain of P. falciparum; experiment: Efficacy in P. falciparum-challenged Aotus monkeys; format: in vivo, Plasmodium falciparum in Aotus lemurinus lemurinus
Method: (§1) The P. berghei-mouse efficacy data were obtained from the WRAIR chemical information system (subcutaneous testing) or from recent tests conducted at AFRIMS, Thailand or at the University of Miami using a modified version of the Thompson test. Groups of five mice were inoculated through i.p. injection on day 0 (usually with 1×106 P. berghei-parasitized erythrocytes). The drugs in Table 1 were administered either subcutaneously or orally for three days (usually on days 3-5) at doses of 1.25-160 mg/kg in two to four fold increments. Cure was defined as survival until day 60 (subcutaneous dosing) or day 31 post-treatment (oral dosing). […] The minimum effective dose was the lowest dose level that cured at least one of five mice. The Aotus studies were performed according to Obaldia; Detection of Klebsiella pnuumoniae antibodies in Aotus l. lemurinus (Panamanian owl monkey) using an enzyme linked immunosorbent assay (ELIA) test; Lab Anim (25)133-141 (1991) and Obaldia et al., WR 238605, chloroquine, and their combinations as blood schizonticides against a chloroquine-resistant strain of Plasmodium vivax in Aotus monkeys; Am. J. Trop. Med. Hyg. (56)508-510 (1997), which are incorporated by reference, herein. Groups of two Aotus lemurinus 6 lemurinus of the karyotype VIII or IX (27) male and female monkeys with weights ranging from 742-970 g were inoculated with 5×10^6 parasites of either the FVO strain of P. falciparum or the AMRU1 strain of P. vivax. Both of these strains are chloroquine resistant. […] Monkeys were examined and thick Giemsa-stained blood smears were prepared and enumerated daily (17) to monitor the course of infection. […] In some instances, a high dose of the test drug was used to retreat monkeys instead of the mefloquine rescue. Monkeys are considered cured if they are parasite free 90 days post treatment. […] Plasma samples were taken from the monkeys in some studies for quantification of metabolites. Additional blood samples were taken as appropriate for complete blood counts and serum chemistry. Research was conducted in compliance with the Animal Welfare Act and other federal statutes and regulations relating to animals and experiments involving animals and adheres to principles stated in the Guide for the Care and Use of Laboratory Animals, NRC Publication, 1996 edition (34).

[2] = Aotus, 10 mg/kg/day oral x7
Method: as §1

[3] = test system: Balb/c 3T3 mouse fibroblast cells; experiment: 3T3 neutral red uptake (NRU) phototoxicity test; format: cell-based
Text: A pharmacophore for phototoxicity was developed to be used as an in silico screening tool to determine the minimum phototoxic concentration for a number of AAQMS (WR069878 and those indicated in Table 5). Minimum phototoxic concentration in a yeast assay for a number of AAQMS, as per Ison et al.; Phototoxicity of Quinoline methanols and other drugs in mice and yeast; J. Invest. Dermatol. (52)193-198 (1969) were used to generate a three-dimensional pharmacophore model using the HypoGen algorithm of the […]® (Accelrys software Inc.) methodology as per Bhattacharjee et al.; A 3D QSAR pharmacophore model and quantum chemical structure—activity analysis of chloroquine(CQ)-resistance reversal; J. Chem Inf. Comput Sci. (42) 1212-1220 (2002), and Dow et al.; as discussed in Antimicrob Agents Chemother. (48)2624-2632 (2004), cited above, both Bhattacharjee et al. and Dow et al, incorporated herein, by reference. The structures of clinically used quinoline methanols were mapped onto the pharmacophores and estimated values for minimum phototoxic concentration were generated. The 3T3 neutral red uptake (NRU) phototoxicity test, conducted by MB Research Laboratories (Spinnerstown, Pa.), was used to identify quinoline methanols (WR069878 and those in Table 5) that have the potential to exert in vivo phototoxicity after systemic application. Briefly, the central 60 wells of two 96-well plates per AAQM were seeded with Balb/c 3T3 mouse fibroblast cells and maintained in culture for 24 hrs. These plates were then pre-incubated with a range of eight different concentrations of test compound (six wells per concentration) for one hour. Next, one plate was treated with a UVA dose of 5 J/cm2 by irradiating for 50 min at 1.7 mW/cm2, whereas the other plate remained non-treated and in the dark. Next, the treatment medium was replaced with culture medium and cell viability was determined after 24 hrs by measuring neutral red uptake for 3 hrs. Finally, the 3T3 NRU Phototox Prediction Software (version 2.0, ZEBET) was used to calculate EC50 values and Photo-Irritant Factors (PIF) for each compound. […]

[4] = mouse, in vivo
[5] = test system: Plasmodium falciparum malaria; settings: P. falciparum malaria, South East Asia; WR030090: field trials; cited from earlier work

SMILES: CCCCN(CCCC)CC(O)c1cc(-c2ccc(Cl)c(Cl)c2)nc2c(Cl)cc(Cl)cc12 (stereo not drawn) [WR030090]
- Activity against P. falciparum TM91C235 (IC50 in ng/ml) (P. falciparum TM91C235): 11 ng/mL
- TM91C235 IC90 (P. falciparum TM91C235; Table 2): 0.052 µg/mL
- Outcome in Aotus, earlier studies ([1]; 10 mg/kg/day x7, WRAIR archival data): cleared but did not cure infections
- Outcome in Aotus ([1]; 10 mg/kg/day x7 oral, groups of two, Cure = parasite free 90 days, R = average day of recrudescence, Failure = rescued with mefloquine): Failure
- Mean peak concentration [2]: 307 ng/mL
- Plasma conc on day 1 (ng/ml) 2 h ([2]; day 1, 2 h): 597 ng/mL
- Plasma conc on day 1 (ng/ml) 24 h ([2]; day 1, 24 h): 11 ng/mL
- Plasma conc. on day 7 (ng/ml) 2 h ([2]; day 7, 2 h): 16 ng/mL
- Plasma conc. on day 7 (ng/ml) 24 h ([2]; day 7, 24 h): 5.6 ng/mL
- Photo Irritant Factor (PIF) [3]: 105.7
- Phototoxicity in mice [4]: are phototoxic^d
- Cure rate [5]: at least 88%
